Laboratory results as given in patent US7449459B2, “Inhibitors of soluble adenylate cyclase” (Bayer Schering Pharma AG, priority 2006, dated 2008).

Target: soluble, sperm-specific adenylate cyclase (sAC) (Homo sapiens, UniProt Q96PN6)
Assay: sAC-Assay (HTRF cAMP detection)
Assay type: biochemical
Settings: inhibition of the soluble adenylate cyclase
From the text: In a suitable buffer system, the soluble, sperm-specific adenylate cyclase catalyzes the reaction of adenosine triphosphate (ATP) to cyclic adenosine monophosphate (cAMP) and pyrophosphate. Free cAMP that is generated in this way is then used in a competitive detection process, in which the binding of a europium kryptate (Eu[K])-labeled anti-cAMP antibody (anti cAMP-Eu[K]-AK) to a cAMP-molecule-labeled, modified allophycocyanine-1 molecule (cAMP-XL665) is prevented. In the absence of exogenic cAMP, after excitation at 335 nm, it results in a fluorescence resonance energy transfer (FRET) between the anti cAMP-Eu[K]-AK (FRET-donor) and the cAMP-XL665 molecule (FRET-acceptor). This process is quantified at different times (time-resolved) based on the emission of FRET-acceptor XL665 (665 nm and 620 nm). A signal drop (measured as a wave ratio; calculation formula: [(E665 nm/E620 nm)×10000]) can be attributed to the presence of cAMP and thus to the activity of sAC.
First, 1.5 μl of the test substance (in 30% DMSO), only 30% DMSO in the solvent controls, is introduced per recess in a 384-hole test plate (polystyrene; 384, NV). […]
After an additional incubation of 90 minutes at room temperature, the HTRF result is measured either on the Packard Discovery or with the RubiStar HTRF measuring device (Delay: 50 μs; Integration time: 400 μs).

Chain of soluble, sperm-specific adenylate cyclase (sAC) (Q96PN6 whole entry): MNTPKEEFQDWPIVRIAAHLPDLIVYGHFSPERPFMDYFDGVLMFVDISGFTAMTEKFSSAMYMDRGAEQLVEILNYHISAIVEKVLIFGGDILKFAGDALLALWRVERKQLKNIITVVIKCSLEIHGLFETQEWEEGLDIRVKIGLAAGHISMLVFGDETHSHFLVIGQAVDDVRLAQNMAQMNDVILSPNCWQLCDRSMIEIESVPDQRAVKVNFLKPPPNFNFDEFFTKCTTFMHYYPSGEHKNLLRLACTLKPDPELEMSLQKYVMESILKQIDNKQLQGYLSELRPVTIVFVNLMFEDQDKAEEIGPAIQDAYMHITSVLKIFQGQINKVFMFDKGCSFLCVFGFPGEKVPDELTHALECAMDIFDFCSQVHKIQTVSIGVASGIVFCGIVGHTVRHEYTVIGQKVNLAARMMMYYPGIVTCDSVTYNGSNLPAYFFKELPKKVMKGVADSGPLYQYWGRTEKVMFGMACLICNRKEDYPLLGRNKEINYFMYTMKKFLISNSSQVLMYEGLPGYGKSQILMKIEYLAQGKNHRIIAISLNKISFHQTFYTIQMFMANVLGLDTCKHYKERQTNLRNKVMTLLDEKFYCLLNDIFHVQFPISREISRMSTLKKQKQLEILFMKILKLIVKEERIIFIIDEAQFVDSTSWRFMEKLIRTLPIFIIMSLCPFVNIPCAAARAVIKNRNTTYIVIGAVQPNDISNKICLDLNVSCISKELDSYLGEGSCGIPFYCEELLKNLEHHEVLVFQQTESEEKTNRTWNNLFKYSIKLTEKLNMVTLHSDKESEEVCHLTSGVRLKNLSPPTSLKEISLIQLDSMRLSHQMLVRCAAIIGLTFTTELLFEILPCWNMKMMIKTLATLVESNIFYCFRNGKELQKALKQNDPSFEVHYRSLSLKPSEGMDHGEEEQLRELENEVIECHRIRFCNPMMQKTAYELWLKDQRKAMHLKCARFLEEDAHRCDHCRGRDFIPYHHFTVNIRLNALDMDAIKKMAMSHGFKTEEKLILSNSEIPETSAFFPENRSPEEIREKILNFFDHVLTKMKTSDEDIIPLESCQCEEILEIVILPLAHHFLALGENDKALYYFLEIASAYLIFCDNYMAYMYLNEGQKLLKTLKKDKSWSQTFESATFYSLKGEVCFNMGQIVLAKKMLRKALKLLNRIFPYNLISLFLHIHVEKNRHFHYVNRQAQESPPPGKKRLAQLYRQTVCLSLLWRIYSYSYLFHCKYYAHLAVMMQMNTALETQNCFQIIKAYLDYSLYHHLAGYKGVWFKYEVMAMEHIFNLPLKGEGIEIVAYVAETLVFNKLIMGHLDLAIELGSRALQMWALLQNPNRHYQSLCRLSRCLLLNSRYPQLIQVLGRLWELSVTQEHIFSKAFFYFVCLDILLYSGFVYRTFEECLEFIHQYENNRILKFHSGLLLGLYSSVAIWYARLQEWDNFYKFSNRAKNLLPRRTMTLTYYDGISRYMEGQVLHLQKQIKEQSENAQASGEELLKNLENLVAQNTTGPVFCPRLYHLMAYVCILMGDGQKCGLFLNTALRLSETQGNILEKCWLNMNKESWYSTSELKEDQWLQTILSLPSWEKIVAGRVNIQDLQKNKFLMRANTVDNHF

Compound | IC50
CC(C)(C)c1ccc(S(=O)(=O)Nc2ccc3[nH]c(/C=C/C(=O)NCCN4CCOCC4)c(-c4ccccc4)c3c2)cc1 | 3.5 µM
CC(O)CNC(=O)/C=C/c1[nH]c2ccc(NS(=O)(=O)c3ccc(C(C)(C)C)cc3)cc2c1-c1ccccc1 (racemic) [(±)-(E)-3-[5-(4-tert-Butyl-phenylsulfonylamino)-3-phenyl-1H-indol-2-yl]-N-(2-hydroxy-propyl)-acrylic acid amide] | 4.4 µM
